Measured values reported in patent US20060110474A1, “Rubrofusarin glycoside-containing composition” (Suntory Limited, priority 2002, published 2006).
Entries after “also recorded” stand apart in the source; their conditions may differ.

What was measured:
Type in all cases: cell-based
[1] = test system: human hepatoma HepG2 cells; assay: Synergistic effect with precursor L-cystine on intracellular glutathione level (L-cystine free D-MEM); details: 40 hours, FIG. 4
Method: (§1) The activity to increase intracellular glutathione level was determined by use of human hepatoma HepG2 cells. More specifically, HepG2 cells were cultured in RPMI1640 medium and added to a 96-well microplate at a density of 2.5×10^4 cells (100 μl) per well. After the HepG2 cells settled on the wall, 25 μl of each of the aforementioned samples was added and the mixture was cultured in a CO2 incubator for 48 hours. Thereafter, a culture solution was removed and the cells were washed once with phosphate buffered saline (PBS), 25 μl of a PBS solution containing 0.25 mM monochlorobimane was added and the mixture was allowed to stand in the CO2 incubator (37° C.) for 45 minutes. After the mixture was returned to room temperature, 75 μl of distilled water was added to the mixture to disperse it. The fluorescent intensity of the fluorescent substance produced by the reaction between Monochlorobimane and glutathione was measured at 355 nm/460 nm to observe a change in intracellular glutathione content.
Using human hepatoma HepG2 cells, the synergistic effect between rubrofusarin glycoside having the intracellular glutathione increasing activity and a precursor for synthesizing glutathione in vivo was investigated. […] Thereafter, intracellular glutathione levels were measured. […]

[2] = test system: human hepatoma HepG2 cells; assay: Intracellular glutathione level of HepG2 cells (monochlorobimane fluorescence)
Method: as §1
(§2) Using human hepatoma HepG2 cells, time-dependent induction effect of rubrofusarin glycoside upon intracellular glutathione level was investigated. The procedure was similar to that of Example 1. Briefly, HepG2 cells were dispensed at a density of 2.5×10^4 cells (100 μl) per well of a microplate and allowed to settle thereto, and then, 25 μl of an evaluation sample diluted to a predetermined concentration in RPMI1640 medium was added. The cells were cultured for 0, 6, 12, 24, and 48 hours. […]
(§3) Using human hepatoma HepG2 cells, dose dependency of the effect of rubrofusarin glycoside upon intracellular glutathione level was investigated. […] After culturing for an additional 48 hours, the intracellular glutathione level was measured to be compared with that of the cells containing no test-compound or that of the cells containing comparative compound, β-naphthoflavone (purchased from Nacalai-tesque) or silibinin (purchased from Sigma Chemical). […]

[3] = test system: human hepatoma HepG2 cells; assay: Protective effect against t-butyl hydroperoxide (rate of surviving cells, WST-1 staining); details: HepG2, 10 μM in terms of rubrofusarin gentiobioside for 48 hours, then t-BHP 0 to 1 mM for 3 hours; β-naphthoflavone 6 μM; FIG. 3
Method: The method was similar to that in Example 5. Briefly, HepG2 cells were dispensed at a density of 2.5×10^4 cells (100 μl) per well of a microplate and allowed to settle thereto, and then, 25 μl of the concentrate diluted in RPMI1640 medium to a final concentration of 10 μM in terms of rubrofusarin gentiobioside was added. After culturing was performed for a further 48 hours, a peroxide, t-butyl hydroperoxide (t-BHP) was added so as to give a final concentration of 0 to 1 mM. The rate of surviving cells after 3 hours relative to that of the cells containing no test compound was compared with those containing comparative compounds, β-naphthoflavone (6 μM) and silibinin (10 μM). The rate of surviving cells was checked by WST-1 staining and calculated based on a control not containing t-BHP as being 100%.

[4] = test system: human hepatoma HepG2 cells; assay: Cytotoxicity seen in the in-vitro HepG2 cell evaluation system; details: HepG2, 48 hours, up to 20 μM, compared with β-naphthoflavone
Method: as §2, with “hours. As the evaluation sample, use was made of the concentrate (containing 10.2% (w/w) rubrofusarin gentiobioside) of the present invention prepared in accordance with the method shown in Example 4.” for “hours.”
as §3

| Structure (SMILES) | intracellular glutathione level with L-cystine alone ([1]; L-cystine at predetermined concentrations) | activity to increase intracellular glutathione level (HPLC fraction) ([2]; HepG2, 48 hours culture, serial two-fold dilution, 4 dilution stages) | glutathione increasing activity, dose dependency ([2]; HepG2, 48 hours, final concentration 0 to 20 μM in terms of rubrofusarin gentiobioside, FIG. 2) | intracellular glutathione level, time course ([2]; HepG2, 0, 6, 12, 24, 48 hours, 1.25, 2.5, 5.0 μM in terms of rubrofusarin gentiobioside, relative to negative control = 100%, FIG. 1) | protective effect against t-BHP (rate of surviving cells) [3] | intracellular glutathione level in co-existence of L-cystine ([1]; 10 μM rubrofusarin glycoside plus L-cystine) | cytotoxicity in a high-concentration range [4] |
| --- | --- | --- | --- | --- | --- | --- | --- |
| N[C@@H](CSSC[C@H](N)C(=O)O)C(=O)O [L-cystine] | increased as the concentration of L-cystine added increased | – | – | – | – | – | – |
| COc1cc(O[C@@H]2O[C@H](CO[C@@H]3O[C@H](CO)[C@@H](O)[C@H](O)[C@H]3O)[C@@H](O)[C@H](O)[C@H]2O)c2c(O)c3c(=O)cc(C)oc3cc2c1 [rubrofusarin glycoside, rubrofusarin 6-O-β-gentiobioside] | – | dose dependent and strong | increases in a dose-dependent manner; also recorded: equivalent to that of β-naphthoflavone | increases in a time-dependent manner | protecting HepG2 cells; also recorded: somewhat lower than that of β-naphthoflavone | synergistically contribute to an increase; also recorded: acted synergistically | lower |
